Assays:
Assay type in all cases: cell-based
[1] = system: human lymphoid cell line CEM T; experiment: Toxicity test by flow cytometry using PI; settings: 1 μM F2N12S; 0.5, 1 and 4 hours incubation
Experimental: The toxicity of the F2N12S molecules was tested by flow cytometry using PI (19 μM). Cells were washed twice as described above and separated in nine batches: three batches for control measurements, three batches with 10^-7 M F2N12S and three batches with 10^-6 M F2N12S. The batches were incubated for 0.5 hour, 1 hour and 4 hours, respectively. The 488 nm line of an argon laser was used as the excitation light source. Emission was collected by using the 630FD22 filter.
Next, the cytotoxicity of the newly synthesized probe, F2N12S, was evaluated on the human lymphoid cell line CEM T. F2N12S was added at 0.1 μM (working concentration) and 1 μM and, incubated for different times (0.5, 1 and 4 hours).

T lymphocytes = experiment: Laser scanning confocal ratiometric imaging of T lymphocytes
Experimental: FIG. 9: Laser scanning confocal imaging of T lymphocytes stained with annexin V-FITC (a) and F2N12S (b and c). Combination of transmission and fluorescence images of cells treated with actinomycin D for 18 hours (please complete this sentence). […] Due to their low binding to annexin V, normal cells are not visualized in the fluorescence images. (b and c) Ratiometric images of normal (b) and actinomycin D-treated (c) cells stained with 0.2 μM F2N12S. […] The size of the images is 60×73.1 μm.
FIG. 10: Time-series of confocal fluorescence ratiometric images of actinomycin D-treated T lymphocytes stained with F2N12S. The cells were treated with actinomycin D for 18 hours and then, incubated with the probe (0.2 μM) for 5 min. Images were recorded at 1 min (a), 10 min (b) and 20 min (c) post incubation. […] The size of the images is 60×73.1 μm.
For collecting cell images, a Laser Scanning Confocal Imaging System MRC-1024 (Bio-Rad) was used. Cells in chambered cover glass were prepared by following the preparation procedure described above. The 442 nm line of a HeCd laser was used as the excitation light source. Emission was collected by using two filters: 485/30 for the N* band and 585LP for the T* band. Collected images were analyzed by the Amira 3.0 software.
To further compare F2N12S and annexinV-derived probes, two-color ratiometric images of F2N12S-labeled cells undergoing apoptosis were recorded by laser scanning confocal microscopy and compared with intensity based images obtained using annexin V-FITC. […] Moreover, the fluorescence intensity of apoptotic cells varies considerably from cell to cell. These differences are difficult to interpret since the intensity depends on the probe concentration as well as on the size and confluence of the cells. […] According to our spectroscopy and flow cytometry data, the latter cells are apoptotic. […] Thus, unlike annexin V-FITC, these probes provide an absolute parameter, the intensity ratio, which can be calibrated, and can characterize the level of apoptosis independently of the probe/cell concentration and the excitation light intensity. In addition, the inventors have observed that in normal cells and cells on the initial steps of apoptosis, the T*/N* intensity ratio is not evenly distributed within the plasma membrane of a given cell. This may indicate an inhomogeneous lipid composition of their plasma membranes that is likely related to the presence of lipid domains.
The inventors also follow apoptotic transformation of the plasma membrane as a function of time. Normal and actinomycin D-treated cells were stained with the corresponding probe and the fluorescence images were subsequently recorded during 20 min. […]

HeLa cells = experiment: Flow cytometry F2N12S intensity ratio in HeLa cells; settings: data not shown
Excerpt: The probe of the invention F2N12S has been combined with PI and the fluorescence intensities of PI have been represented as a function of the T*/N* ratio of F2N12S (FIG. 6c). In this case, the populations of apoptotic and dead cells are clearly discriminated by using the differences in the PI intensities. […] This conclusion was further strengthened when the populations discriminated by the F2N12S/PI couple were colored according to their response with the annexin V-FITC/PI couple (FIG. 6d).

In the case of “1-dodecanaminium, N-[[2-[4-Diethylaminophenyl]-3-hydroxychromon-6-yl]-methyl]-N-methyl-N-(3-sulfopropyl)-, inner salt [F2N12S]”, the “percentage of dead cells” value [1] was no more than 4%, the “time-dependent change of the fluorescence images” value (T lymphocytes; actinomycin D-treated cells, images recorded during 20 min) was “relatively fast change in the emission color” and the “which cells are stained in fluorescence images” value (T lymphocytes; normal and actinomycin D-treated cells) was “stains both normal (FIG. 9b) and apoptotic cells (FIG. 9c) but in different colors”. The “F2N12S intensity ratio values compared with T lymphoblastoid cells” value (HeLa cells) was “very similar”.
